Columns and labels:
MLK1 = target: T1, MLK1 (Homo sapiens, UniProt P80192); assay: kinome scan; format: binding; conditions: 10 µM
T1 construct: purchased DiscoverX (KINOMEscan)

STK36 = target: T2, STK36 (Homo sapiens, UniProt Q9NRP7); assay: kinome scan; format: binding; conditions: 10 µM
T2 construct: purchased DiscoverX (KINOMEscan)

JNK2 = target: T3, JNK2 (Homo sapiens, UniProt P45984); assay: kinome scan; format: binding; conditions: 10 µM
T3 construct: purchased DiscoverX (KINOMEscan)

MRCKA = target: T4, MRCKA (Homo sapiens, UniProt Q5VT25); assay: kinome scan; format: binding; conditions: 10 µM
T4 construct: purchased DiscoverX (KINOMEscan)

CDK4-cyclinD3 = target: T5, CDK4-cyclinD3 (Homo sapiens, UniProt P11802); assay: kinome scan; format: binding; conditions: 10 µM
T5 construct: purchased DiscoverX (KINOMEscan)

CSNK1D = target: T6, CSNK1D (Homo sapiens, UniProt P48730); assay: kinome scan; format: binding; conditions: 10 µM
T6 construct: purchased DiscoverX (KINOMEscan)
T6 sequence (P48730 whole entry): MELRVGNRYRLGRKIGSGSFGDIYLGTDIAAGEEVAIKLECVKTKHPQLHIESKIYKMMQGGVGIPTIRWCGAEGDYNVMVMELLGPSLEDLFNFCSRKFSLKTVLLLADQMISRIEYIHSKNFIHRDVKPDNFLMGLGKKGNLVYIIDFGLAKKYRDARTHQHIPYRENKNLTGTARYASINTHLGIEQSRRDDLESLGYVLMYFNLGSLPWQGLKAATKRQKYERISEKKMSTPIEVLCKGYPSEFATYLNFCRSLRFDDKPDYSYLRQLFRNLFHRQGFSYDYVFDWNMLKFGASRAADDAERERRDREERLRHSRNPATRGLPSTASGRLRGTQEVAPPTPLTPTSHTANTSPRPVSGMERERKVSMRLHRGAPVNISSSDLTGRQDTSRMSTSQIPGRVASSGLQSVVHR

PFTAIRE2 = target: T7, PFTAIRE2 (Homo sapiens, UniProt Q96Q40); assay: kinome scan; format: binding; conditions: 10 µM
T7 construct: purchased DiscoverX (KINOMEscan)

BTK = target: T8, BTK (Homo sapiens, UniProt Q06187); assay: kinome scan; format: binding; conditions: 10 µM
T8 construct: purchased DiscoverX (KINOMEscan)

Abelson (Abl) = Abelson (Abl) (Homo sapiens, UniProt P00519); assay: Milano activity test; format: biochemical; conditions: wild-type Abl; for Milano activity test: up to 100 µM
CDK7 = target: T9, CDK7 (Homo sapiens, UniProt P50613); assay: kinome scan; format: binding; conditions: 10 µM
T9 construct: purchased DiscoverX (KINOMEscan)

CAMK2B = target: T10, CAMK2B (Homo sapiens, UniProt Q13554); assay: kinome scan; format: binding; conditions: 10 µM
T10 construct: purchased DiscoverX (KINOMEscan)

PKAC-alpha = target: T11, PKAC-alpha (Homo sapiens, UniProt P17612); assay: kinome scan; format: binding; conditions: 10 µM
T11 construct: purchased DiscoverX (KINOMEscan)

FLT3 = target: T12, FLT3 (Homo sapiens, UniProt P36888); assay: kinome scan; format: binding
T12 construct: purchased DiscoverX (KINOMEscan)
T12 sequence (P36888 27-993): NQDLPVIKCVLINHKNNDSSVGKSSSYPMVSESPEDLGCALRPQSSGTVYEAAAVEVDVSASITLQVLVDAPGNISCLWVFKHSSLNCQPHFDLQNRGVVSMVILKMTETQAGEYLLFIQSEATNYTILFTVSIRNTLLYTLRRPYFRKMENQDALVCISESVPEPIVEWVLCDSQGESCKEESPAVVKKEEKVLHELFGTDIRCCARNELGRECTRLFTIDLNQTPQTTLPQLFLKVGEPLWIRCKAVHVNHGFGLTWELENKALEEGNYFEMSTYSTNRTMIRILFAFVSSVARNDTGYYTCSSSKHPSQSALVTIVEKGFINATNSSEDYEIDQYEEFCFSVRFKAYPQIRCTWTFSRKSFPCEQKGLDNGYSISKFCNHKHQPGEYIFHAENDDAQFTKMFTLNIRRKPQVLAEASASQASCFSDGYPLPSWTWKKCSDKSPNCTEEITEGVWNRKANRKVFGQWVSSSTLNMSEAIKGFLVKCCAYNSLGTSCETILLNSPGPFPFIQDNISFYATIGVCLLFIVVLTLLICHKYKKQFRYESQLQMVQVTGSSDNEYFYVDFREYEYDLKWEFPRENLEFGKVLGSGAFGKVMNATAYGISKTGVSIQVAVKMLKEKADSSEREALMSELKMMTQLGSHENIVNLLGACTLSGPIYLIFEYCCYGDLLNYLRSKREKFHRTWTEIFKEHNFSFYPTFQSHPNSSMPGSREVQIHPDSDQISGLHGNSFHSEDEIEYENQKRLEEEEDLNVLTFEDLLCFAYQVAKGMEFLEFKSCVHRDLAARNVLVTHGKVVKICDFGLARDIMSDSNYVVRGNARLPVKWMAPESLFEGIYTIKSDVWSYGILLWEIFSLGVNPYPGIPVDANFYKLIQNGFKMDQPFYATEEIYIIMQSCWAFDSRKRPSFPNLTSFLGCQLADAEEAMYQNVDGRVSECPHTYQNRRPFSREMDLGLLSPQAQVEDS

MKK7 = target: T13, MKK7 (Homo sapiens, UniProt O14733); assay: kinome scan; format: binding; conditions: 10 µM
T13 construct: purchased DiscoverX (KINOMEscan)

MEK4 = target: T14, MEK4 (Homo sapiens, UniProt P45985); assay: kinome scan; format: binding; conditions: 10 µM
T14 construct: purchased DiscoverX (KINOMEscan)

RIOK3 = target: T15, RIOK3 (Homo sapiens, UniProt O14730); assay: kinome scan; format: binding; conditions: 10 µM
T15 construct: purchased DiscoverX (KINOMEscan)
T15 sequence (O14730 whole entry): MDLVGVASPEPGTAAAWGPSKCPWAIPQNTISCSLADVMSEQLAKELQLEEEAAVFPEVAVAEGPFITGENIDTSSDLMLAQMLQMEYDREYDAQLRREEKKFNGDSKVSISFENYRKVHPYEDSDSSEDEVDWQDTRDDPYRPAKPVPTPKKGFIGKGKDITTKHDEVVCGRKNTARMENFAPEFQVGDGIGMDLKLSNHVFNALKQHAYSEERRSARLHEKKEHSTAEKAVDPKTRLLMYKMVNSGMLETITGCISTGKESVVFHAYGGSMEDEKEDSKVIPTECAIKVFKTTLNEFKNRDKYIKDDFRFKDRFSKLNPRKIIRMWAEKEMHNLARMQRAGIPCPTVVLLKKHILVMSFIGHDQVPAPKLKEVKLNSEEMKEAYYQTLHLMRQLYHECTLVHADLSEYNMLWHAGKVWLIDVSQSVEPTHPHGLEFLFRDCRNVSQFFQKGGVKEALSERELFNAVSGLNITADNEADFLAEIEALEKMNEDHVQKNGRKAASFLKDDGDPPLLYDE

MYO3B = target: T16, MYO3B (Homo sapiens, UniProt Q8WXR4); assay: kinome scan; format: binding; conditions: 10 µM
T16 construct: purchased DiscoverX (KINOMEscan)

MTOR = target: T17, MTOR (Homo sapiens, UniProt P42345); assay: kinome scan; format: binding; conditions: 10 µM
T17 construct: purchased DiscoverX (KINOMEscan)

ERK1 = target: T18, ERK1 (Homo sapiens, UniProt P27361); assay: kinome scan; format: binding; conditions: 10 µM
T18 construct: purchased DiscoverX (KINOMEscan)

EGFR(L858R) = target: T19, EGFR(L858R) (Homo sapiens, UniProt P00533, L858R); assay: kinome scan; format: binding; conditions: 10 µM
T19 construct: purchased DiscoverX (KINOMEscan)

FGFR3 = target: T20, FGFR3 (Homo sapiens, UniProt P22607); assay: kinome scan; format: binding; conditions: 10 µM
T20 construct: purchased DiscoverX (KINOMEscan)
T20 sequence (P22607 23-806): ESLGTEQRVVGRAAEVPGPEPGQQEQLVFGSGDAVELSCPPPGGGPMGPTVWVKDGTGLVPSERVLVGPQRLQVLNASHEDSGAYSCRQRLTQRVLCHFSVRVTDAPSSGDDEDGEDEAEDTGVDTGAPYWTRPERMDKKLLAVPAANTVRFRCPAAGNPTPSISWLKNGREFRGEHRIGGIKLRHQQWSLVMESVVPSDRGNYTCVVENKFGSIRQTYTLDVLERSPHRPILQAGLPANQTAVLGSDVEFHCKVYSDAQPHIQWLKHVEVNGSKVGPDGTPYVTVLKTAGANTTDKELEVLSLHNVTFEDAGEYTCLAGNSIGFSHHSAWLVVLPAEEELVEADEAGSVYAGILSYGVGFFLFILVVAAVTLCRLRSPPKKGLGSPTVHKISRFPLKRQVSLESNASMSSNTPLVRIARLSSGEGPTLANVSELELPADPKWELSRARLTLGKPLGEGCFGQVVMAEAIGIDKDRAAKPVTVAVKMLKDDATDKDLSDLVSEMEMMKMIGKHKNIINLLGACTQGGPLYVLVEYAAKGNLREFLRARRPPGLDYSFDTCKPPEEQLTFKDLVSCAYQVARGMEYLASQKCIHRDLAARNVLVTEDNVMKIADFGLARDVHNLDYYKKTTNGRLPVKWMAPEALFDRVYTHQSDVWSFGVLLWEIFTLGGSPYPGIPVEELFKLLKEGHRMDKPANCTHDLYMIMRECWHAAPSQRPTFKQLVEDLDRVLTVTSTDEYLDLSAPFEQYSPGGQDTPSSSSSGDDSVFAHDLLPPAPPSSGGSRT

[1] = system: CGR8EF1αS,RLuc-Tα1,FLuc cells; assay: cell viability by propidium iodide; format: cell-based, mouse; conditions: up to 10 µM, 72 h
Protocol: The CGR8 mouse PSC were cultured as described ([Suter et al., 2009]). For neural induction, CGR8 cells were plated in 96-well plates at a density of 10,000 cells/cm^2 on gelatine-coated cell culture plates, in differentiation medium [BHK-21 medium supplemented with 20% foetal calf serum (Thermofisher), L-glutamine 2 mM (Thermofisher), non-essential amino acids (1X, Thermofisher), sodium pyruvate 1 mM (Thermofisher), penicillin/streptomycin 50 U/ml (Thermofisher)]. CGR8EF1αS,RLuc-Tα1,FLuc cells were described in ([Suter et al., 2009]) and were cultured as described above. Luminescence assays were directly performed in 96-well plates with the Dual Luciferase Reporter Assay System (Promega) according to the manufacturer’s instructions. Luminescence was measured with the SpectraMax L Microplate luminometer (Molecular Devices). Cell viability in the wells was measured by the addition of propidium iodide 1 µg/ml in 100 µL of PBS and fluorescence was assessed in each well using a FluoStar Optima reader (Pharmaceutical Technology Group at the University of Geneva).
After two days, cells were lysed for the quantification of intracellular ATP. […] After three days, cells were lysed for the quantification of F-luminescence (FLuc) and R-luminescence (RLuc) in the presence of the respective substrates.

CDK8 = target: T21, CDK8 (Homo sapiens, UniProt P49336); assay: kinome scan; format: binding; conditions: 10 µM
T21 construct: purchased DiscoverX (KINOMEscan)
T21 sequence (P49336 whole entry): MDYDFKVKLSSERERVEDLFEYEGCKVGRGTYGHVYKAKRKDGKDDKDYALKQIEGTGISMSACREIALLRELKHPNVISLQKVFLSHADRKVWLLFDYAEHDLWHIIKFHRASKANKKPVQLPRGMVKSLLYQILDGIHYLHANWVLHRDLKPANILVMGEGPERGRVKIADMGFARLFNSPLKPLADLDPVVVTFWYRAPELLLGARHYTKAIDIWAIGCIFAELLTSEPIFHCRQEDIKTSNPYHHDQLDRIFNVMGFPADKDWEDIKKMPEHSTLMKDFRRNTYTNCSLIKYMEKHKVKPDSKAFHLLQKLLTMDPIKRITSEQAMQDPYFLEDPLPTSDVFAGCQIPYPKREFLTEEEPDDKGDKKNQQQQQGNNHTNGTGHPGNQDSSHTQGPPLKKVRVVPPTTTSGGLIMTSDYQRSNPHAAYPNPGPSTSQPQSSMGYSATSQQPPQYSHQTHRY

[2] = target: T22, RPS6KA4(Kin.Dom.2-C-terminal) (Homo sapiens, UniProt O75676); assay: kinome scan; format: binding; conditions: 10 µM
T22 construct: RPS6KA4(Kin.Dom.2-C-terminal); purchased DiscoverX (KINOMEscan)

DDR1 = target: T23, DDR1 (Homo sapiens, UniProt Q08345); assay: kinome scan; format: binding; conditions: 10 µM
T23 construct: purchased DiscoverX (KINOMEscan)
T23 sequence (Q08345 19-913): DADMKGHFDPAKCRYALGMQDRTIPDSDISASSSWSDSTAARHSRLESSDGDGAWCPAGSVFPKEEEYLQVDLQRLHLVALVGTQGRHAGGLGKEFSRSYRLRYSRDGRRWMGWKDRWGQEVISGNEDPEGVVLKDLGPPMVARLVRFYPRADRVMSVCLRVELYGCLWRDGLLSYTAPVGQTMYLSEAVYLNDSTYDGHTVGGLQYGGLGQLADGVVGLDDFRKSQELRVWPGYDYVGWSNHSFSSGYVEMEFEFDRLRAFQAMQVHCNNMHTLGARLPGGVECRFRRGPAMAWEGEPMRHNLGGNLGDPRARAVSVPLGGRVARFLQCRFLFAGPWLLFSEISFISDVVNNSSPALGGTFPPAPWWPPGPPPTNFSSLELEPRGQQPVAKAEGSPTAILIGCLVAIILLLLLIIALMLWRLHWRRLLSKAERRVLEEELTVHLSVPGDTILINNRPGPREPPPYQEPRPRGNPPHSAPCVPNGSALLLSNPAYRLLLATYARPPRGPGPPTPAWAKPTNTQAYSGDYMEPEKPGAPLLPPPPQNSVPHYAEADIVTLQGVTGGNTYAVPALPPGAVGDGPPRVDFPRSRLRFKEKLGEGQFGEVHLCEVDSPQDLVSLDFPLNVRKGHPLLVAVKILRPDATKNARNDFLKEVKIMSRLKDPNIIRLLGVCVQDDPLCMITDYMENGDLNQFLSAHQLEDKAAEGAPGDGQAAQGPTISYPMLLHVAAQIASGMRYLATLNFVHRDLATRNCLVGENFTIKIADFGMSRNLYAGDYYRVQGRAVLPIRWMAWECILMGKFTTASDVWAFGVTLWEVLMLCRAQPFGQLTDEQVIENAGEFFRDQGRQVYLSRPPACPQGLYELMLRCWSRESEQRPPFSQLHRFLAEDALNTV

FES = target: T24, FES (Homo sapiens, UniProt P07332); assay: kinome scan; format: binding; conditions: 10 µM
T24 construct: purchased DiscoverX (KINOMEscan)

MYLK4 = target: T25, MYLK4 (Homo sapiens, UniProt Q86YV6); assay: kinome scan; format: binding; conditions: 10 µM
T25 construct: purchased DiscoverX (KINOMEscan)
T25 sequence (Q86YV6 whole entry): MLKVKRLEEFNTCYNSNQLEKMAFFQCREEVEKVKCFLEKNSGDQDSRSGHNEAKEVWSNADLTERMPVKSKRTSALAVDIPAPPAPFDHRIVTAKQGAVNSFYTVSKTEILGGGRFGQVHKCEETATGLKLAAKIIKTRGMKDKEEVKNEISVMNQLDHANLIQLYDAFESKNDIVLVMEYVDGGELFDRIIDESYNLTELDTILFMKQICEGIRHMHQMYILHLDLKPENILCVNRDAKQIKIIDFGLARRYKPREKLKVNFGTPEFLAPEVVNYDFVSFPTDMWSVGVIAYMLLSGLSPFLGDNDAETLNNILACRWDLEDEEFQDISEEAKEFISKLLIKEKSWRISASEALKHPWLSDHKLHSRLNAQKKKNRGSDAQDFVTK

YSK1 = target: T26, YSK1 (Homo sapiens, UniProt O00506); assay: kinome scan; format: binding; conditions: 10 µM
T26 construct: purchased DiscoverX (KINOMEscan)
T26 sequence (O00506 whole entry): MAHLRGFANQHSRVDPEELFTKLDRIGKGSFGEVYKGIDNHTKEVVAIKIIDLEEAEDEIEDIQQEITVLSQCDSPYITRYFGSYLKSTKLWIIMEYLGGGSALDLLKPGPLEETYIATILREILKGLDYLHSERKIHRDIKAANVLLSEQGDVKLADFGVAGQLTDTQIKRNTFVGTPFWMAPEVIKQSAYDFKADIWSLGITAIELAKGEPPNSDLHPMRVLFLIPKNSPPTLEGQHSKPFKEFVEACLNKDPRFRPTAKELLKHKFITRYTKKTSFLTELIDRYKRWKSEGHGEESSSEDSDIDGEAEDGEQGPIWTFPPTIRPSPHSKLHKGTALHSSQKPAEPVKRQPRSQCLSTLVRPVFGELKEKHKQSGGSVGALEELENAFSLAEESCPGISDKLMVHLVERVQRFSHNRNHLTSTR

[3] = target: T27, ABL1(H396P)-nonphosphorylated (Homo sapiens, UniProt P00519, H396P); assay: kinome scan; format: binding; conditions: 10 µM
T27 construct: purchased DiscoverX (KINOMEscan)

[4] = target: T28, RPS6KA4(Kin.Dom.1-N-terminal) (Homo sapiens, UniProt O75676); assay: kinome scan; format: binding; conditions: 10 µM
T28 construct: RPS6KA4(Kin.Dom.1-N-terminal); purchased DiscoverX (KINOMEscan)

MAP4K2 = target: T29, MAP4K2 (Homo sapiens, UniProt Q12851); assay: kinome scan; format: binding; conditions: 10 µM
T29 construct: purchased DiscoverX (KINOMEscan)

SMILES: Nc1ccc(N=Nc2ccccc2)c(N)n1 [phenazopyridine, 2,6-diamino-3-(phenylazo)pyridine]
- kinase inhibition (MLK1): 87
- kinase inhibition (STK36): 99
- kinase inhibition (JNK2): 94
- kinase inhibition (MRCKA): 99
- kinase inhibition (CDK4-cyclinD3): 100
- kinase inhibition (CSNK1D): 50
- kinase inhibition (PFTAIRE2): 96
- kinase inhibition (BTK): 100
- inhibition at 500 µM (Abelson (Abl); 500 µM, data not shown): 35%
- Milano activity test (Abelson (Abl)): not inhibited
- Milano activity test (Abelson (Abl); listed as Phenazopyridine): Phenazopyridine is inactive at 100 µM
- kinase inhibition (CDK7): 50
- kinase inhibition (CAMK2B): 100
- kinase inhibition (PKAC-alpha): 100
- remaining binding (% of control) (FLT3; 10 µM): 25
- remaining binding at 10 µM (FLT3; read-out: % Of control): 25%
- kinase inhibition (MKK7): 100
- kinase inhibition (MEK4): 48
- remaining binding (% of control) (RIOK3): 100
- kinase inhibition (MYO3B): 95
- kinase inhibition (MTOR): 74
- kinase inhibition (ERK1): 95
- kinase inhibition (EGFR(L858R)): 100
- kinase inhibition (FGFR3): 91
- toxicity (signal in the presence of propidium iodide) [1]: without any toxicity
- kinase inhibition (CDK8): 86
- kinase inhibition [2]: 90
- kinase inhibition (DDR1): 96
- kinase inhibition (FES): 100
- kinase inhibition (MYLK4): 87
- kinase inhibition (YSK1): 96
- kinase inhibition [3]: 48
- kinase inhibition [4]: 89
- kinase inhibition (MAP4K2): 65

— article PMC8371461 (Frontiers in Pharmacology, 2021)
